# Data reported in paper PMC8459971, “Evaluation of the hepatotoxicity of the novel GPR40 (FFAR1) agonist CPL207280 in the rat and monkey” (PLoS ONE, 2021).
# Values joined by “and” are separate entries in the source; they are usually repeats but may differ in a detail not shown here. Equal entries are not always repeated.
# How the values were obtained:
# OATP1B3 = biological target: T1, OATP1B3 (Homo sapiens, UniProt Q9NPD5); assay: Uptake transporter inhibition assay, OATP1B3
# T1 sequence (Q9NPD5 1-702): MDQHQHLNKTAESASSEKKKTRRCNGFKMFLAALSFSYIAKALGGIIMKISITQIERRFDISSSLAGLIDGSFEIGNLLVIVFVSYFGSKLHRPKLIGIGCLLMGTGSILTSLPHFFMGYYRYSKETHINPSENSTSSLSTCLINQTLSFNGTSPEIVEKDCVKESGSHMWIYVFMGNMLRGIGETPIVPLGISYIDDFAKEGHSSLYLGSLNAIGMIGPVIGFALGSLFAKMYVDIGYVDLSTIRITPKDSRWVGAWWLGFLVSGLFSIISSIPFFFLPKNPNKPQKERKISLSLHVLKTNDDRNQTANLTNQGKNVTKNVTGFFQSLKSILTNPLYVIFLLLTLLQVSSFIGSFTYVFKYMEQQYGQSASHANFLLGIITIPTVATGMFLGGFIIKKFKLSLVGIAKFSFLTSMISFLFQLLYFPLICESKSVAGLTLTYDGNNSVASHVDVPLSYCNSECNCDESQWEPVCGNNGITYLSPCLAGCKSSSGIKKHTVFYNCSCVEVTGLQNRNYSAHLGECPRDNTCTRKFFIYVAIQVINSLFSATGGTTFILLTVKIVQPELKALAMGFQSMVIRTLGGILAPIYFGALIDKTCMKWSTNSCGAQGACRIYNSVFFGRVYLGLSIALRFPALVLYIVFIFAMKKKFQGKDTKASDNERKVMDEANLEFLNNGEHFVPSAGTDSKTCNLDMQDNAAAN
# Method: (§2) For the uptake transporter inhibition assay, cells were washed twice with 100 μL of the appropriate buffer (HK, pH 7.4) for OATP1B1, followed by HBSS (pH 7.4) for (NTCP, OAT1, OAT2v1, OATP1A2, and OATP1B3). Uptake experiments were carried out at 37 ± 1°C in 50 μL of the respective buffer containing the probe substrate and the compound or solvent. […] After the experiment, cells were washed twice with 100 μL of cold appropriate buffer and lysed with 50 μL of 0.1 M NaOH. Radiolabeled probe substrate transport was determined by measuring an aliquot (35 μL) from each well for liquid scintillation counting.
# OATP1A2 = OATP1A2 (Homo sapiens, UniProt P46721); assay: Uptake transporter inhibition assay, OATP1A2; conditions: for Accumulation (counts per minute; CPM) HEK293FT-MOCK / Accumulation (counts per minute; CPM) HEK293FT-OATP1A2: OATP1A2;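 note: cellular uptake of a radiolabeled probe substrate in HBSS pH 7.4 at 37 °C with test compound or solvent, measured by liquid scintillation counting of cell lysates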
# Chain of OATP1A2 (P46721 whole entry): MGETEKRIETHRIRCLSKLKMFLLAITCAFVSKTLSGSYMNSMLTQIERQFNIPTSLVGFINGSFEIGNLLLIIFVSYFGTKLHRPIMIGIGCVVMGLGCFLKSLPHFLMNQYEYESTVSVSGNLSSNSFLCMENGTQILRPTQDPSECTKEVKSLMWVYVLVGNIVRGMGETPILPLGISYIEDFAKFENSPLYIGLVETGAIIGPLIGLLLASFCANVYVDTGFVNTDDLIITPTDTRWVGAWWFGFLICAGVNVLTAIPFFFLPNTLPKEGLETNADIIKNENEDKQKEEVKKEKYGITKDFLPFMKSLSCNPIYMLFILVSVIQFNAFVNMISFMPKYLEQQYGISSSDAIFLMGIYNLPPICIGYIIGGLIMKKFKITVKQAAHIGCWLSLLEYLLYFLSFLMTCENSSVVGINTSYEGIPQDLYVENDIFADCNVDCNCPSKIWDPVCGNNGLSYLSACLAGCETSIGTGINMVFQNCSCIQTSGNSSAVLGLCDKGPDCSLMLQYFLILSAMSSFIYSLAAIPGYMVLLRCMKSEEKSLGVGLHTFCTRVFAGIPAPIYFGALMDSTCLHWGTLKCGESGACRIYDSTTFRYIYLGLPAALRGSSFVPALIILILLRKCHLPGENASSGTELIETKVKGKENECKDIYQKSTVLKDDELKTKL
# Method: as §2
# in vivo = conditions: both, Wistar Han, rat, 600 mg/kg, 14 days
# [1] = Viability assay, human primary hepatocytes, RT-glo, 48 h; format: cell-based; conditions: human, primary human hepatocytes, sheet Fig1 panel C (primary human hepatocytes), 48 h, replicates, read-out: viability, normalized to DMSO-treated controls
# Method: (§1) To study the viability of the liver cells, 5 × 10^3 HepG2 (ATCC®) or human primary cells (ThermoFisher Scientific, USA) were seeded in 100 μL of DMEM media (Gibco; Thermo Fisher Scientific, USA) supplemented with fetal bovine serum (FBS)- in a 96-well plate. […] The experiments were performed in triplicates.
# [2] = system: human primary hepatocytes; assay: as above; format: cell-based; conditions: 48 h
# Method: as §1
# [3] = Viability assay, HepG2 cells, MTT test, 48 h; format: cell-based, human; conditions: human, HepG2 cells, sheet Fig1 panel B (HepG2), 48 h, replicates, read-out: viability, normalized to DMSO-treated controls
# Method: as §1
# HepG2 = assay: Viability assay, HepG2 cells, MTT test, 48 h; format: cell-based, human; conditions: for viability, normalized to DMSO-treated controls: sheet Fig1 panel B (HepG2), replicates, in % (unit assumed)
# Method: as §1
# OAT2v1 = biological target: T2, OAT2v1 (Homo sapiens, UniProt Q9Y694); assay: Uptake transporter inhibition assay, OAT2v1; format: cell-based; conditions: for Accumulation (counts per minute; CPM) HEK293FT-MOCK / Accumulation (counts per minute; CPM) HEK293FT-OAT2v1: OAT2v1
# T2 construct: expressed in transfected cells; host or cells: HEK cells
# T2 sequence (Q9Y694 1-546 isoform Q9Y694-2): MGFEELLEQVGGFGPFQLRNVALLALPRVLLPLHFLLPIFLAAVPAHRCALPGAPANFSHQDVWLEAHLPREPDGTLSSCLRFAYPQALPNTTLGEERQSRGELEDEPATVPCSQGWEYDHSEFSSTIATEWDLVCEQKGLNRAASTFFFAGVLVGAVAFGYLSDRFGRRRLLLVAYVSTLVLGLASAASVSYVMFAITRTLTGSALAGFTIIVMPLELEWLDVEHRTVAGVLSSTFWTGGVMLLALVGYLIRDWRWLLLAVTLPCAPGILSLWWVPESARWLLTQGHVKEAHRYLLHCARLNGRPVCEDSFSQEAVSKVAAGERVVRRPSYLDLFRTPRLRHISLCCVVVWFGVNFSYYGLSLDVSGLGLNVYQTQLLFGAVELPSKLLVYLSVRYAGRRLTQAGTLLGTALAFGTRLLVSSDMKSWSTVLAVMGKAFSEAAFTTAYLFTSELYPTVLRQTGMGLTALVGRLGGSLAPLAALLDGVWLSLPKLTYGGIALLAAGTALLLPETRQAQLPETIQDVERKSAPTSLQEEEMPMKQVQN
# Method: For the uptake transporter inhibition assay, cells were washed twice with 100 μL of the appropriate buffer (HK, pH 7.4) for OATP1B1, followed by HBSS (pH 7.4) for (NTCP, OAT1, OAT2v1, OATP1A2, and OATP1B3). Uptake experiments were carried out at 37 ± 1°C in 50 μL of the respective buffer containing the probe substrate and the compound or solvent.
smiles,measurement,setting,value
"Cc1cc(OCCCS(C)(=O)=O)cc(C)c1-c1cccc(COc2ccc3c(c2)OC[C@H]3CC(=O)O)c1 [TAK-875, fasiglifam, reference compound]",IC50,OATP1B3,3.44 µM
same,IC50,OATP1A2,10.6 µM
same,Accumulation (counts per minute; CPM) HEK293FT-MOCK,OATP1A2; conc 0.10 µM,142 CPM and 152 CPM
same,Accumulation (counts per minute; CPM) HEK293FT-OATP1A2,OATP1A2; conc 0.10 µM,10423 CPM and 10027 CPM
same,Accumulation (counts per minute; CPM) HEK293FT-MOCK,OATP1A2; conc 0.30 µM,182 CPM and 209 CPM
same,Accumulation (counts per minute; CPM) HEK293FT-OATP1A2,OATP1A2; conc 0.30 µM,8846 CPM and 9642 CPM
same,Accumulation (counts per minute; CPM) HEK293FT-MOCK,OATP1A2; conc 1.00 µM,191 CPM and 201 CPM
same,Accumulation (counts per minute; CPM) HEK293FT-OATP1A2,OATP1A2; conc 1.00 µM,7776 CPM and 7509 CPM
same,Accumulation (counts per minute; CPM) HEK293FT-MOCK,OATP1A2; conc 3.00 µM,170 CPM and 194 CPM
same,Accumulation (counts per minute; CPM) HEK293FT-OATP1A2,OATP1A2; conc 3.00 µM,6621 CPM and 5348 CPM
same,Accumulation (counts per minute; CPM) HEK293FT-MOCK,OATP1A2; conc 10.00 µM,165 CPM and 156 CPM
same,Accumulation (counts per minute; CPM) HEK293FT-OATP1A2,OATP1A2; conc 10.00 µM,5408 CPM and 5698 CPM
same,Accumulation (counts per minute; CPM) HEK293FT-MOCK,OATP1A2; conc 30.00 µM,149 CPM and 181 CPM
same,Accumulation (counts per minute; CPM) HEK293FT-OATP1A2,OATP1A2; conc 30.00 µM,4731 CPM and 4729 CPM
same,Accumulation (counts per minute; CPM) HEK293FT-MOCK,OATP1A2; conc 100.00 µM,205 CPM and 204 CPM
same,Accumulation (counts per minute; CPM) HEK293FT-OATP1A2,OATP1A2; conc 100.00 µM,2008 CPM and 2199 CPM
same,exposure exceeding the CPL207280 exposure,in vivo,200%
same,"viability at 48 h, 0.78 µM",[1]; 0.78 uM,117%
same,"viability at 48 h, 3.125 µM",[1]; 3.125 uM,113%
same,"viability at 48 h, 6.25 µM",[1]; 6.25 uM,89.7%
same,"viability at 48 h, 25 µM",[1]; 25 uM,64.7%
same,"viability at 48 h, 50 µM",[1]; 50 uM,34.1%
same,"viability at 48 h, 100 µM",[1]; 100 uM,4.16%
same,viability,"[2]; human primary hepatocytes, concentrations up to 10 μM",Neither compound exhibited altered viability
same,effect on growth,"[2]; primary cells, 100 μM",abolished the growth
same,"viability at 48 h, 25 µM",[3]; 25 uM,67.5%
same,"viability at 48 h, 50 µM",[3]; 50 uM,61.2%
same,effect on growth,"HepG2; HepG2, 48 h, 100 μM",abolished the growth
same,viability,"HepG2; HepG2, 48 h, concentrations up to 10 μM",Neither compound exhibited altered viability
same,IC50,"HepG2; hepatocytes (HepG2 and human primary cells), 48 h, read-out: IC50 in the viability study",~50 µM
same,"viability, normalized to DMSO-treated controls","HepG2; 48 h, 0.78 uM",126.396
same,"viability, normalized to DMSO-treated controls","HepG2; 48 h, 3.125 uM",63.2509
same,"viability, normalized to DMSO-treated controls","HepG2; 48 h, 6.25 uM",66.4311
same,"viability, normalized to DMSO-treated controls","HepG2; 48 h, 25 uM",47.9859 and 54.8143
same,"viability, normalized to DMSO-treated controls","HepG2; 48 h, 50 uM",48.6926 and 45.8734
same,"viability, normalized to DMSO-treated controls","HepG2; 48 h, 100 uM",25.4386 and 23.9576 and 12.1733
same,Accumulation (counts per minute; CPM) HEK293FT-MOCK,OAT2v1; conc 0.10 µM,37 CPM and 25 CPM
same,Accumulation (counts per minute; CPM) HEK293FT-OAT2v1,OAT2v1; conc 0.10 µM,4606 CPM and 4412 CPM
same,Accumulation (counts per minute; CPM) HEK293FT-MOCK,OAT2v1; conc 0.30 µM,30 CPM
same,Accumulation (counts per minute; CPM) HEK293FT-OAT2v1,OAT2v1; conc 0.30 µM,4740 CPM and 4495 CPM
same,Accumulation (counts per minute; CPM) HEK293FT-MOCK,OAT2v1; conc 1.00 µM,33 CPM
same,Accumulation (counts per minute; CPM) HEK293FT-OAT2v1,OAT2v1; conc 1.00 µM,4344 CPM and 4183 CPM
same,Accumulation (counts per minute; CPM) HEK293FT-MOCK,OAT2v1; conc 3.00 µM,34 CPM and 20 CPM
same,Accumulation (counts per minute; CPM) HEK293FT-OAT2v1,OAT2v1; conc 3.00 µM,4050 CPM and 3892 CPM
same,Accumulation (counts per minute; CPM) HEK293FT-MOCK,OAT2v1; conc 10.00 µM,25 CPM and 18 CPM
same,Accumulation (counts per minute; CPM) HEK293FT-OAT2v1,OAT2v1; conc 10.00 µM,3715 CPM and 3589 CPM
same,Accumulation (counts per minute; CPM) HEK293FT-MOCK,OAT2v1; conc 30.00 µM,47 CPM and 27 CPM
same,Accumulation (counts per minute; CPM) HEK293FT-OAT2v1,OAT2v1; conc 30.00 µM,3019 CPM and 2844 CPM
same,Accumulation (counts per minute; CPM) HEK293FT-MOCK,OAT2v1; conc 100.00 µM,24 CPM and 30 CPM
same,Accumulation (counts per minute; CPM) HEK293FT-OAT2v1,OAT2v1; conc 100.00 µM,1943 CPM and 1847 CPM
same,IC50,"OAT2v1; transformed HEK cells, up to 300μM, n = 2",62.8 µM
